Reference: US20020143062A1, “Method to incorporate N-(4-hydroxyphenyl) retinamide in liposomes” (Board of Regents, The University of Texas System, priority 2000, published 2002)
Where two headings read alike, the source gives them in different places.

How the values were obtained:
[1] = Incorporation efficiency of 4-HPR into liposomes (OD345 after/before separation); assay type: physicochemical
Experimental: The mixture was frozen in acetone-dry ice bath, and then dried by lyophilzer. It was stored as a powder and resuspended with saline before use.
To determine the incorporation efficiency of 4-HPR into liposomes, liposomal 4-HPR powder was resuspended in saline and any free, unincorporated free 4-HPR was separated by centrifugation at 30,000× g for 1 hour. Liposomal 4-HPR was collected as a pellet and washed three times with saline. 4-HPR concentration was determined by absorbance at 345 nm. To remove the interference by liposomal turbidity, absorbance was measured after liposomal 4-HPR before and after separation was diluted with 1:1 mixture of dimethylsulfoxide and water. The incorporation efficiency was calculated by the following equation:
Incorporation efficiency=OD345 (after separation)/OD345 (before separation)×100%

BT-474 cells = assay: Growth and viability, Celltiter 96 Aqueous (MTS) cell proliferation assay; assay type: cell-based; details: Homo sapiens, BT-474, 72 h, 3 days, % of untreated cells, read-out: Growth and viability (%) after treatment
Experimental: (§1) Breast cancer cell lines were plated in 96 well plates in DMEM/F12 medium supplemented with 5% fetal calf serum and incubated with different concentrations of liposomal 4-HPR and free 4-HPR, respectively. At the end of incubation, the growth of cells was determined by the Celltiter 96 Aqueous nonradioactive cell proliferation assay (Promega Corp., Madison, Wis.) according to the manufacturer's protocol. Growth and viability of cells were determined by MTS assay after treatment with 4-HPR for 3 days (BT-474) and 4 days (MCF7). Growth of treated cells was compared with that of untreated cells cultured under the same conditions, and was expressed as % of untreated cells.

MCF-7 cells = assay: as above; assay type: cell-based; details: Homo sapiens, MCF7, 96 h, 4 days, % of untreated cells, read-out: Growth and viability (%) after treatment
Experimental: as §1

ER-positive MCF-7 cells [2] = assay: NO production, nitrite assay (Tables 5 and 7); assay type: cell-based
Text: (§2) Nitric oxide (NO), an important biological second messenger, is known to induce growth inhibition and apoptosis in cells. Nitric oxide (NO) is biosynthesized by isoenzymes called nitric oxide synthases. One such isoenzyme, inducible NOS (iNOS), is present only after cytokine induction, such as interferon-γ (IFN-γ). […] Here, the ability of liposomal 4-HPR and IFN-γ to induce NO production and growth inhibition in breast cancer positive (Table 5) and breast cancer negative (Table 6) cells is examined by nitrite assays and growth inhibition assays, as known to the skilled artisan.
(§3) It is also known to those skilled in the art that nitric oxide (NO) is a biologic mediator derived from the amino acid L-arginine. A family of enzymes, known as nitric oxide synthase (NOS), act upon L-arginine to oxidize one of the guanidino nitrogens to nitric oxide while citrulline is formed from the remainder of the L-arginine molecule.
(§4) Liposomal 4-HPR in combination with cyclosporin A, increased iNOS production of NO in breast cancer cells (Table 3-5). […] Furthermore, an increase in the production of NO in these cells was not indicated with other retinoids such as CD437 and ATRA.

ER-positive MCF-7 cells [3] = assay: Growth inhibition, cell count (Table 5); assay type: cell-based; details: 4HPR 1 μM alone; 5 days
Text: as §2

ER-positive MCF-7 cells [4] = assay: NO production, nitrite assay (Table 6); assay type: cell-based; details: 4HPR 1 μM alone, 5 days
Text: as §2, §3

ER-positive MCF-7 cells [5] = assay: Growth inhibition, cell count (Table 6); assay type: cell-based; details: 4HPR 1 μM alone, 5 days
Text: Nitric oxide (NO), an important biological second messenger, is known to induce growth inhibition and apoptosis in cells. Nitric oxide (NO) is biosynthesized by isoenzymes called nitric oxide synthases. […]

[6] = system: ER-negative MDA-MB-231 cells; assay: NO production, nitrite (Table 8); assay type: cell-based; details: alone or with cyclosporin A 4 μg/ml as labelled, 3 days
Text: as §4

MCF-7/WT = assay: Cellular proliferation assay, IC50 of retinoids with/without cyclosporin A; assay type: cell-based; details: for IC50: Homo sapiens
MCF-7/ADR = assay: as above; assay type: cell-based; details: for IC50: Homo sapiens, NCI/ADR-RES
BT-474 [7] = assay: as above; assay type: cell-based; details: for IC50: Homo sapiens
MDA-MB-453 [8] = assay: as above; assay type: cell-based; details: for IC50: Homo sapiens
MDA-MB-231 = assay: as above; assay type: cell-based; details: for IC50: Homo sapiens
BT-474 [9] = assay: NO production, nitrite (Table 10); assay type: cell-based; details: Herceptin − or + as labelled
Text: (§5) Overexpression/amplification of the Her-2/neu oncogene has been associated with poor prognosis for breast cancer.

MDA-MB-453 [10] = assay: NO production, nitrite (Table 10); assay type: cell-based; details: Herceptin − or + as labelled
Text: as §5

SK-Br-3 = assay: NO production, nitrite (Table 10); assay type: cell-based; details: Herceptin − or + as labelled
Text: as §5

[11] = 100 μM
Experimental: The shelf stability of liposomal 4-HPR with free 4-HPR was compared. Liposomal 4-HPR and free 4-HPR were diluted with 0.9% normal saline at 100 μM concentration, and incubated at room temperature under subdued light. At various time points, absorbance at 345 nm was measured as a parameter of 4-HPR stability. All data are expressed as % of absorbance at time zero, which is considered as 100%.

[12] = cited from earlier work
[13] = without cyclosporin A, read-out: IC50 Without CsA
[14] = cotreatment with CsA 2 μg/ml, read-out: IC50 With CsA

incorporation efficiency ([1]; by optimizing ratio of 4-HPR to lipid mixture and ratio of DMPC to soybean oil): up to 96% | Incorporation efficiency (%) ([1]; composition column 1 of 7: 4-HPR:Lipid (w/w) 1:17, DMPC:soybean oil 1:0, water in tertiary butyl alcohol 0): 60.0% | Incorporation efficiency (%) ([1]; composition column 2 of 7: 4-HPR:Lipid 1:17, DMPC:soybean oil 1:0, water in tertiary butyl alcohol 1): 81.5% | Incorporation efficiency (%) ([1]; composition column 3 of 7: water in tertiary butyl alcohol 1, lipid ratios not resolvable (header spans lost), DMPC:soybean oil 9:1): 87.5% | Incorporation efficiency (%) ([1]; composition column 4 of 7: water in tertiary butyl alcohol 10, lipid ratios not resolvable (header spans lost)): 92.8% | Incorporation efficiency (%) ([1]; composition column 5 of 7: water in tertiary butyl alcohol 1, lipid ratios not resolvable (header spans lost), DMPC:soybean oil 8:2): 77.5% | Incorporation efficiency (%) ([1]; composition column 6 of 7: 4-HPR:Lipid 1:5 (likely), DMPC:soybean oil 9:1, water in tertiary butyl alcohol 10): 88.3% | Incorporation efficiency (%) ([1]; composition column 7 of 7: 4-HPR:Lipid 1:15, DMPC:soybean oil 9:1, water in tertiary butyl alcohol 10): 96.4% | -Fold ↑ (IC50 without CsA / with CsA) (MCF-7/WT; CsA 2 μg/ml): 3.11 -Fold | IC50 (MCF-7/WT; MCF7, cotreatment with CsA 2 μg/ml, read-out: IC50 With CsA): 1.21 µM | IC50 (MCF-7/WT; MCF7, without cyclosporin A, read-out: IC50 Without CsA): 3.76 µM | -Fold ↑ (IC50 without CsA / with CsA) (MCF-7/ADR; CsA 4 μg/ml): 2.47 -Fold | IC50 (MCF-7/ADR; cotreatment with CsA 4 μg/ml, read-out: IC50 With CsA): 2.7 µM | IC50 (MCF-7/ADR; [13]): 6.66 µM | -Fold ↑ (IC50 without CsA / with CsA) (BT-474 [7]; CsA 2 μg/ml): 1.81 -Fold | IC50 (BT-474 [7]; [14]): 1.99 µM | IC50 (BT-474 [7]; [13]): 3.61 µM | -Fold ↑ (IC50 without CsA / with CsA) (MDA-MB-453 [8]; CsA 2 μg/ml): 3.26 -Fold | IC50 (MDA-MB-453 [8]; [14]): 1.9 µM | IC50 (MDA-MB-453 [8]; [13]): 6.2 µM | -Fold ↑ (IC50 without CsA / with CsA) (MDA-MB-231; CsA 2 μg/ml): 6.37 -Fold | IC50 (MDA-MB-231; [14]): 1.23 µM | IC50 (MDA-MB-231; [13]): 7.84 µM | % remaining (absorbance at 345 nm as % of time zero) ([11]; 0 h): 100% | % remaining (absorbance at 345 nm as % of time zero) ([11]; 24 h): 85% | % remaining (absorbance at 345 nm as % of time zero) ([11]; 48 h): 84% | % remaining (absorbance at 345 nm as % of time zero) ([11]; 72 h): 71% | % remaining (absorbance at 345 nm as % of time zero) ([11]; 96 h): 61% | % remaining (absorbance at 345 nm as % of time zero) ([11]; 120 h): 51% | % remaining (absorbance at 345 nm as % of time zero) ([11]; 168 h): 32%
SMILES: CC1=C(/C=C/C(C)=C/C=C/C(C)=C/C(=O)Nc2ccc(O)cc2)C(C)(C)CCC1 [4-HPR, N-(4-hydroxyphenyl) retinamide]
viability at 0.1 µM (BT-474 cells; 0.1 μM 4-HPR): 100 ± 13.4% | viability at 0.9 µM (BT-474 cells; 0.9 μM 4-HPR): 109 ± 4.1% | viability at […] (BT-474 cells; 1.5 μM 4-HPR): 99.4 ± 12.1% | viability at 2.3 µM (BT-474 cells; 2.3 μM 4-HPR): 76.9 ± 5.3% | viability at 3.8 µM (BT-474 cells; 3.8 μM 4-HPR): 52.6 ± 3.7% | viability at 9 µM (BT-474 cells; 9.0 μM 4-HPR): 17.1 ± 2.8% | viability at 0.1 µM (MCF-7 cells; 0.1 μM 4-HPR): 106 ± 7.8% | viability at 0.9 µM (MCF-7 cells; 0.9 μM 4-HPR): 77.5 ± 5.8% | viability at […] (MCF-7 cells; 1.5 μM 4-HPR): 43.8 ± 5.7% | viability at 1.8 µM (MCF-7 cells; 1.8 μM 4-HPR): 33.6 ± 2% | viability at 3.6 µM (MCF-7 cells; 3.6 μM 4-HPR): 17.8 ± 1.5% | Nitrite (NO production) (ER-positive MCF-7 cells [2]; 4HPR 1 μM alone, 5 days, text: liposomal 4-HPR): 72.6 ± 1.7 μM Nitrite /1 × 10^6 cells | Nitrite (NO production) (ER-positive MCF-7 cells [2]; 4HPR 1.0 μM, alone or with cyclosporin A 4 μg/ml as labelled, 3 days): 12.5 μM Nitrite /1 × 10^6 cells | Nitrite (NO production) (ER-positive MCF-7 cells [2]; 4HPR 2.0 μM, alone or with cyclosporin A 4 μg/ml as labelled, 3 days): 33.8 μM Nitrite /1 × 10^6 cells | Cell count (ER-positive MCF-7 cells [3]): 20 × 10^4 | Nitrite (NO production) (ER-positive MCF-7 cells [4]): 36.9 ± 5.8 μM Nitrite /1 × 10^6 cells | Cell count (ER-positive MCF-7 cells [5]): 34 × 10^4 | Nitrite (NO production) ([6]; 4HPR 2.5 μM): 22.8 μM Nitrite /1 × 10^6 cells | Nitrite (NO production) ([6]; 4HPR 6.0 μM): 26.7 μM Nitrite /1 × 10^6 cells | Nitrite (NO production) (BT-474 [9]; 4HPR 1 μM): 45.8 ± 0. μM Nitrite /1 × 10^6 cells | Nitrite (NO production) (BT-474 [9]; 4HPR 2.5 μM): 146.9 ± 2.8 μM Nitrite /1 × 10^6 cells | Nitrite (NO production) (MDA-MB-453 [10]; 4HPR 1 μM): 30.9 ± 1.5 μM Nitrite /1 × 10^6 cells | Nitrite (NO production) (MDA-MB-453 [10]; 4HPR 2.5 μM): 68.1 ± 3.4 μM Nitrite /1 × 10^6 cells | Nitrite (NO production) (SK-Br-3; 4HPR 1 μM): 34.9 ± 1.2 μM Nitrite /1 × 10^6 cells | Nitrite (NO production) (SK-Br-3; 4HPR 2.5 μM): 75.2 ± 5.1 μM Nitrite /1 × 10^6 cells | solubility in water [12]: poorly soluble in water
